# Measurements as given in patent publication US7374920B2, “Ginkgo biloba levopimaradiene synthase” (priority 2001, dated 2008).
# “Also recorded” adds a separate entry of the source.
# T1: Levopimaradiene synthase (Ginkgo biloba, UniProt Q947C4)
# T1 construct: thioredoxin (from pET32c(+)); made in house; host or cells: E. coli BL21(DE3), soluble fraction of the lysate
# T1 sequence (Q947C4 60-873): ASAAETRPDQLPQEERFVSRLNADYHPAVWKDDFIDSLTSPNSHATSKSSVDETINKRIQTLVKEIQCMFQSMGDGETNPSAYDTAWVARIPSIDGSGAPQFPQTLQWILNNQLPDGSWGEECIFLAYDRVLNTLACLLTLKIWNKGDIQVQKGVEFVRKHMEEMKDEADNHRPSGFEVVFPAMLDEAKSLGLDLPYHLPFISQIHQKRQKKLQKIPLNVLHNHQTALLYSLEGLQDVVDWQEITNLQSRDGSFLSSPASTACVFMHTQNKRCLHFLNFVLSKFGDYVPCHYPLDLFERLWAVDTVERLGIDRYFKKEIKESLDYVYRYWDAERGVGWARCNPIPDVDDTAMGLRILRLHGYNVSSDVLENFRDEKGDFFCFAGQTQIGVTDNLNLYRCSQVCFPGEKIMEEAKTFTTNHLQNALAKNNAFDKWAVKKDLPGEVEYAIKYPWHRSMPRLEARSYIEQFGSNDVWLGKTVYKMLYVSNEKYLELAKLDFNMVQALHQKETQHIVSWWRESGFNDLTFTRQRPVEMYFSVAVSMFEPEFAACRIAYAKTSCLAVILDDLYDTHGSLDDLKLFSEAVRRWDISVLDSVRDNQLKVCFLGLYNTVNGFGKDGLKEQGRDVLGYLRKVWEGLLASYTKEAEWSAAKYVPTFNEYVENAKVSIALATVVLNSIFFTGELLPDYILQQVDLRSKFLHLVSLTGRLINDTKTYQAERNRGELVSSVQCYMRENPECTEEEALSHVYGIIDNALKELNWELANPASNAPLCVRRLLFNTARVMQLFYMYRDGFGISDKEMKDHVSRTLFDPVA
# B1: Phe^129: Ginkgo biloba levopimaradiene synthase truncated at Cys^127-Met^128, referred to as Phe^129; SEQ.ID.NO:39 (protein, listed as Ginkgo biloba)
# chain: MFQSMGDGETNPSAYDTAWVARIPSIDGSGAPQFPQTLQWILNNQLPDGSWGEECIFLAYDRVLNTLACLLTLKIWNKGDIQVQKGVEFVRKHMEEMKDEADNHRPSGFEVVFPAMLDEAKSLGLDLPYHLPFISQIHQKRQKKLQKIPLNVLHNHQTALLYSLEGLQDVVDWQEITNLQSRDGSFLSSPASTACVFMHTQNKRCLHFLNFVLSKFGDYVPCHYPLDLFERLWAVDTVERLGIDRYFKKEIKESLDYVYRYWDAERGVGWARCNPIPDVDDTAMGLRILRLHGYNVSSDVLENFRDEKGDFFCFAGQTQIGVTDNLNLYRCSQVCFPGEKIMEEAKTFTTNHLQNALAKNNAFDKWAVKKDLPGEVEYAIKYPWHRSMPRLEARSYIEQFGSNDVWLGKTVYKMLYVSNEKYLELAKLDFNMVQALHQKETQHIVSWWRESGFNDLTFTRQRPVEMYFSVAVSMFEPEFAACRIAYAKTSCLAVILDDLYDTHGSLDDLKLFSEAVRRWDISVLDSVRDNQLKVCFLGLYNTVNGFGKDGLKEQGRDVLGYLRKVWEGLLASYTKEAEWSAAKYVPTFNEYVENAKVSIALATVVLNSIFFTGELLPDYILQQVDLRSKFLHLVSLTGRLINDTKTYQAERNRGELVSSVQCYMRENPECTEEEALSHVYGIIDNALKELNWELANPASNAPLCVRRLLFNTARVMQLFYMYRDGFGISDKEMKDHVSRTLFDPVA
# How the values were obtained:
# Levopimaradiene synthase = target: T1, Levopimaradiene synthase; assay: levopimaradiene synthase activity towards geranyl diphosphate and farnesyl diphosphate; type: biochemical; settings: E. coli expression, 200 μM substrate, overnight at 32° C., GC or GC/MS
# Description: Levopimaradiene synthase was also tested for activity towards 200 μM geranyl diphosphate and farnesyl diphosphate. Cell cultures were induced and lysed as noted above. The soluble fraction of the lysate was incubated overnight at 32° C. with 200 μM substrate in 30 mM HEPES, pH 7.2, 5 mM DTT, 5% glycerol, 2 mM MgCl2 and 500 μM MnCl2, and overlaid with hexane (1 mL).
# (§1) All in vitro reactions were extracted 3× with hexane and dried over MgSO4. The reaction was further extracted twice with diethyl ether and dried over MgSO4. Thereafter, the crude lysate was suspended in 100 mM Tris, pH 8.0 containing 2.9 units/mg apyrase (a dephosphorylating agent) and 10 units/μL calf intestinal alkaline phosphatase, incubated at 30° C. for 3 hours, and extracted with diethyl ether as noted above (Croteau and Cane, 1985). The crude reaction mixtures were eluted over SiO2, concentrated, and analyzed by GC and GC/MS.
# Gas chromatography spectra were obtained on a Hewlett Packard 6890 Series GC System equipped with an Rtx-5 capillary column (Restek, 30 m×0.25 mm i.d., 0.10 μm df). The following separation conditions and temperature program were employed: injector port 250° C., FID 250° C., split ratio 39:1, helium flow 20 cm/s (0.6 mL/min), 150° C. hold 5 min, increase to 250° C. (5° C./min), hold 5 min. […]
# [1] = system: G. biloba seedlings, plants, and trees; settings: cited from earlier work; for effect on diterpenoid content: cycloartenol synthase inhibitors (Huh, et al., 1993)
# [2] = in vitro enzymatic assay of levopimaradiene synthase constructs expressed in E. coli BL21(DE3); type: biochemical, Escherichia coli; settings: E. coli BL21(DE3), soluble lysate fraction, 20 μM GGDP, overnight at 32° C., GC and GC/MS
# Description: The desired plasmids were prepared by ligating the mutated gene insert into the similarly digested vectors pET32c(+) (Novagen; Madison, Wis.) and pRS426GAL (Hua, 2000), a multiple copy yeast expression vector. These plasmids was expressed in E. coli BL21(DE3) (Novagen; Madison, Wis.). E. coli cells were grown in Luria-Bertani medium supplemented with 100 μg/mL ampicillin at 37° C. with shaking to OD600 ˜0.6. The following parameters were tested: isopropyl 1-thio-β-D-galactopyranoside (IPTG) concentration (50, 100, 250, 500, and 1000 μM); and temperature and time (20° C. for 2, 3, 4, 6, 21 hours, 22° C. for 6, 8, 16, 19, 22, 45 hours, and 30° C. for 3, 6 hours). The following assay conditions were tested to obtain maximum diterpene product yield: 30 mM HEPES (N-2-hydroxyethylpiperazine-N′-[…]), pH 6.9, 7.2, 7.6, 8.0; 30 mM Tris (tris(hydroxymethyl)aminomethane hydrochloride), pH 7.4, 7.8, 8.2; 1, 5, 10% glycerol; 1, 3, 5, 10, 20 mM DTT (dithiothreitol); 20 mM β-mercaptoethanol; 2, 5, 8% Triton X-100; 5% Tween 80; 0, 2, 7.5, 20, 50 mM MgCl2; 0, 30, 500, 1000 μM MnCl2; 2, 10, 13.3, 20, 40, 80, 200 μM GGDP; and 23° C. and 32° C. assay temperatures.
# Optimal soluble protein production and diterpene yield were obtained with the following conditions. Cell cultures were induced with 1 mM IPTG at 20° C. with shaking for 6 hours and lysed by sonication in 30 mM HEPES, pH 7.2, 5 mM DTT, and 5% glycerol. The soluble fraction of the lysate (100 mg/mL) was incubated with 20 μM GGDP in 30 mM HEPES, pH 7.2, 5 mM DTT, 5% glycerol, 2 mM MgCl2, and 500 μM MnCl2 overnight at 32° C.
# as §1
# (§2) Gas chromatography spectra were obtained on a Hewlett Packard 6890 Series GC System equipped with an Rtx-5 capillary column (Restek, 30 m×0.25 mm i.d., 0.10 μm df). The following separation conditions and temperature program were employed: injector port 250° C., FID 250° C., split ratio 39:1, helium flow 20 cm/s (0.6 mL/min), 150° C. hold 5 min, increase to 250° C. (5° C./min), hold 5 min. GC/MS spectra were obtained on a Hewlett-Packard 5890A instrument with a 30-m DB-5 ms column (J&W Scientific Inc., 0.25 mm i.d., 0.10 μm df). The following separation conditions and temperature program were employed: injector port 280° C., transfer lines: 280° C., helium flow at 30 cm/s (1 mL/min) with splitless injection at 150° C. hold 3 min, increase to 250° C. (5° C./min), hold 5 min. Mass spectra (m/z 50 to 500) were obtained on a VG ZAB-HF reverse-geometry double-focusing instrument at 70 eV with an electron-impact ion source (200° C.). Accelerating voltage was set to 8 kV and the resolution was 1000 (10% valley).
# The skilled artisan recognizes that lysis and assay conditions should be optimized. Examples of parameters that can be adjusted to optimize conditions include altering buffer, pH, reductant, reductant concentration, metal cofactors, cofactor concentrations, glycerol concentrations, substrate concentrations, and assay temperatures. […] Maximum soluble protein production and diterpene yield were obtained with the following conditions. Cell cultures were induced with 1 mM IPTG at 20° C. with shaking for 6 hours and lysed by sonication in 30 mM HEPES, pH 7.2, 5 mM DTT, and 5% glycerol. The soluble fraction of the lysate (100 mg/1 mL) was incubated with 20 μM GGDP in 30 mM HEPES, pH 7.2, 5 mM DTT, 5% glycerol, 2 mM MgCl2, and 500 μM MnCl2 overnight at 32° C. […]
# [3] = in vitro assay of levopimaradiene synthase constructs expressed in wild-type S. cerevisiae JBY575; type: biochemical, Saccharomyces cerevisiae; settings: wild-type S. cerevisiae JBY575, galactose 48 hours, lysate with GGDP
# Description: Expression in S. cerevisiae JBY575, which represents wild-type yeast, was observed. JBY575 cells transformed with pRS426GAL inserted with the putative levopimaradiene synthase were grown in synthetic complete medium lacking uracil and supplemented with 2% glucose and 1.5% agar at 30° C. to saturation and induced with galactose for 48 hours. Cells were harvested, resuspended in lysis buffer, and mixed by vortexing over glass beads. The lysate was assayed with 60 μM GGDP in the presence and absence of 0.2% and 5% Triton X-100.
# as §1, §2
# The skilled artisan recognizes that lysis and assay conditions should be optimized. Examples of parameters that can be adjusted to optimize conditions include altering buffer, pH, reductant, reductant concentration, metal cofactors, cofactor concentrations, glycerol concentrations, substrate concentrations, and assay temperatures. […] Maximum soluble protein production and diterpene yield were obtained with the following conditions. Cell cultures were induced with 1 mM IPTG at 20° C. with shaking for 6 hours and lysed by sonication in 30 mM HEPES, pH 7.2, 5 mM DTT, and 5% glycerol. The soluble fraction of the lysate (100 mg/1 mL) was incubated with 20 μM GGDP in 30 mM HEPES, pH 7.2, 5 mM DTT, 5% glycerol, 2 mM MgCl2, and 500 μM MnCl2 overnight at 32° C. Yeast expression was induced with galactose at 30° C. for 48 hours and the cells were lysed and assayed according to the conditions noted.
# EHY18 yeast cells = assay: in vivo expression of GbLS constructs in yeast strain EHY18 that accumulates GGDP, GC quantitation of products; type: cell-based; settings: GC, GC/MS
# Description: The yeast strain of the copending application employed was EHY18 (Hart, E., 2001) which was further transformed with multiple-copy yeast expression vectors comprising an isolated and purified nucleic acid sequence of GbLS or derivatives thereof, which are described herein under control of the GAL1 inducible promoter. Yeast cells were grown to saturation in 5 mL ScD-Leu-Ura at 30° C. Cells were harvested (1300×g, 2 min, 25° C.) and resuspended in 500 μL sterile Milli-Q H2O (2×). The washed cells were resuspended in 5 mL sterile Milli-Q H2O. An aliquot of the culture (5 μL) was added to a 25 mL Corex tube containing pre-prepared 2× resin and 5 mL ScG-Leu-Ura (4% galactose) and shaken at 30° C. for 6 days. Resin was collected by filtration through a Kontes chromatography column (1.7 cm diameter) and rinsed with dI H2O until eluent was clear. The resin was incubated in 2 mL ethanol for several minutes, eluted, and repeated 2×. The combined eluents were dissolved in approximately 3 mL dI H2O and extracted (3×) with 3 mL hexane. The combined extracts were concentrated under a stream of nitrogen. GC analysis (quantitation extrapolated from 0.2 mg/mL longifolene external standard) indicated the following product profile (obtained from triplicate measurement of three cultures): 0.61±0.20 mg/L levopimaradiene, 0.04±0.01 mg/L abietadiene, 0.15±0.05 mg/L abietatriene, 0.16±0.13 mg/L (+)-copalol, and 1.79±0.90 mg/L geranylgeraniol. GC/MS fragmentation confirmed the identity of each compound.
# A large scale culture (1-L) was prepared by growing the yeast cells to saturation in 5 mL ScD-Leu-Ura at 30° C. Cells were harvested (1300×g, 2 min, 25° C.) and resuspended in 500 μL sterile Milli-Q H2O (2×). The washed cells were resuspended in 5 mL sterile Milli-Q H2O. An aliquot of the culture (1 mL) was added to a 2 L flask containing 1-L ScG-Leu-Ura (4% galactose) and 88.27 g resin in 120 mL Milli-Q H2O (pre-prepared). The resin was eluted with ethanol (3×100 mL with 20 min incubation periods), which was subsequently extracted (6×) with hexane. The combined extracts were dried over magnesium sulfate, filtered, and concentrated under reduced pressure. GC analysis (quantitation extrapolated from 0.2 mg/mL longifolene external standard) indicated the following product profile (obtained from triplicate measurement): 0.29±0.04 mg/L levopimaradiene, 0.04±0.02 mg/L abietadiene, 0.13±0.04 mg/L abietatriene, 0.11±0.02 mg/L (+)-copalol, and 0.56±0.03 mg/L geranylgeraniol. GC/MS analyses confirmed the production of the above noted diterpenes, which included hydrocarbons and an alcohol.
# Further optimization studies employed the Ser61 construct. Factors influencing diterpene production included induction period and concentration of galactose and resin in the inducing medium.
molecule,measurement,setting,value
CC(C)=CCC/C(C)=C/COP(=O)(O)OP(=O)(O)O [geranyl diphosphate],terpene formation from alternative substrate,Levopimaradiene synthase,did not produce any identifiable terpenes
COc1ccc(C(O)(c2cncnc2)C2CC2)cc1 (stereo not shown) [ancymidol],effect on diterpenoid content,[1],Variable results
fluridone,increase in ginkgolides,"[1]; application to G. biloba (Huh, et al., 1993)",up to 78%
Cc1cc(OC(=O)N2CCCCC2)c(C(C)C)cc1[N+](C)(C)C.[Cl-] [AMO-1618],effect on diterpenoid content,[1],Variable results
B1,diterpene product on bacterial expression,[2],failed to produce detectable levels of any diterpene; also recorded: complete loss of enzymatic activity
same,diterpene product on yeast expression,[3],failed to produce observable levels of any diterpene product; also recorded: failed to produce detectable levels of biosynthetic product
same,diterpene products on expression in EHY18,EHY18 yeast cells,no diterpene alcohol or hydrocarbon formation
